Results as given in ChEMBL document CHEMBL1126220, “Synthesis and antifolate properties of 5,10-ethano-5,10-dideazaaminopterin” (J Med Chem, 1992).

How the values were obtained:
[1] = target: T1, Dihydrofolate reductase (Mus musculus, UniProt P00375); experiment: Inhibition of the dihydrofolate reductase enzyme(DHFR) derived from L1210 murine leukemia cells.; type: cell-based
T1 sequence (P00375 whole entry): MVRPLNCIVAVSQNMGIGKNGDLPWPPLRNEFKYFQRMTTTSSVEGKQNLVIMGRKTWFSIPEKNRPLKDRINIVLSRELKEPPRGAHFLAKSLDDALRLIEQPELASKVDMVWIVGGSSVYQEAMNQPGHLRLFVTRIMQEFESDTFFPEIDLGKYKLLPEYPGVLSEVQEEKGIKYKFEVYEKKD

[2] = Influx with respect to the MTX.; type: functional
[3] = system: L1210; experiment: Concentration required to inhibit 50% growth of L1210 cells in culture.; type: functional, cell-based; conditions: Mus musculus

SMILES | Ki [1] | Relative influx [2] | IC50 [3]
Nc1nc(N)c2c3c(cnc2n1)CC(c1ccc(C(=O)NC(CCC(=O)O)C(=O)O)cc1)CC3 (stereo not given) | 0.017 nM | 3.3 | 4.5 nM
CC(Cc1cnc2nc(N)nc(N)c2c1)c1ccc(C(=O)NC(CCC(=O)O)C(=O)O)cc1 (stereo not given) |  | 1.43 | 
CCC(Cc1cnc2nc(N)nc(N)c2c1)c1ccc(C(=O)NC(CCC(=O)O)C(=O)O)cc1 (stereo not given) |  | 1.32 | 
